Experimental data published in the supplement of paper PMC12592484.

Assays:
Test in all cases: drug sensitivity score (DSS2, normalised partial AUC of dose-response, 72 h CellTiter-Glo viability) (DSS (dimensionless)); higher = more sensitive (stronger growth inhibition / cytotoxicity); extreme values may be limits of the assay
[1] = test system: CAF#7 (primary prostate cancer-associated fibroblasts of myCAF-like type)
In short: (§1)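 Five doses spanning a 10,000-fold range were pre-dispensed into 384-well plates, into which low-passage primary prostate cancer-associated fibroblasts, PF179T, WPMY-1, LNCaP and 22Rv1 cells were seeded. After 72 h, CellTiter-Glo 2.0 luminescence measured viability, scaled to vehicle and positive-control wells. Higher values of the drug sensitivity score, a BREEZE-computed partial area under the fitted logistic dose–response curve divided by the log of the upper asymptote, mean greater sensitivity.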

[2] = test system: WPMY-1
In short: as §1

[3] = test system: LNCAP
In short: as §1

[4] = test system: CAF#2 (primary prostate cancer-associated fibroblasts of iCAF-like type)
In short: as §1

[5] = test system: CAF#5 (primary prostate cancer-associated fibroblasts of myCAF-like type)
In short: as §1

[6] = test system: CAF#1 (primary prostate cancer-associated fibroblasts of myCAF-like type)
In short: as §1

[7] = test system: CAF#4 (primary prostate cancer-associated fibroblasts of iCAF-like type)
In short: as §1

[8] = test system: CAF#3 (primary prostate cancer-associated fibroblasts of myCAF-like type)
In short: as §1

[9] = test system: 22Rv1
In short: as §1

[10] = test system: CAF#6 (primary prostate cancer-associated fibroblasts of iCAF-like type)
In short: as §1

[11] = test system: PF179T
In short: as §1

Row | Compound | drug sensitivity score [1] | drug sensitivity score [2] | drug sensitivity score [3] | drug sensitivity score [4] | drug sensitivity score [5] | drug sensitivity score [6] | drug sensitivity score [7] | drug sensitivity score [8] | drug sensitivity score [9] | drug sensitivity score [10] | drug sensitivity score [11]
1 | C[C@H]1C[C@@H]2[C@H]([C@@H](O)C[C@@]3(C)[C@H]2CC[C@]3(O)C(=O)CO)[C@@]2(C)C=CC(=O)C=C12 [Methylprednisolone] (tested concentration range 1-10000 nM) | 1.2 | 0 | 0 | 0 | 0 | 0 | 0 | 1.9 | 0 | 0 | 0
2 | Cc1cc(OCc2nnc(SC3CCCC3)n2-c2cccnc2)ccc1-c1ccc(S(C)(=O)=O)cc1 [NMS-873] (tested concentration range 1-10000 nM) | 5.1 | 14.6 | 18.4 | 8.5 | 5.6 | 4.8 | 5.7 | 8 | 12.4 | 5.9 | 15
3 | CCc1cncnc1N1CCN(Cc2nc3ccc(C(F)(F)F)cc3[nH]2)CC1 (tested concentration range 1-10000 nM) | 0.9 | 1.7 | 4 | 2.4 | 1.6 | 1.8 | 1.1 | 7.6 | 2.9 | 0.5 | 0
4 | O=C(O)c1ccc(-c2c[nH]c3ncc(-c4ccccc4)cc23)cc1C1CCCC1 (tested concentration range 1-10000 nM) | 0 | 2.4 | 0 | 2.3 | 0.8 | 0 | 0 | 0 | 0 | 0 | 0.1
5 | Cc1cc(Nc2cc(N3CCN(C)CC3)nc(Sc3ccc(NC(=O)C4CC4)cc3)n2)n[nH]1 [Tozasertib] (tested concentration range 1-10000 nM) | 4.7 | 14.5 | 7 | 8.4 | 3.5 | 3.2 | 3.2 | 4.9 | 5.5 | 3 | 8.2
6 | COC(=O)c1ccc2c(c1)NC(=O)/C2=C(\Nc1ccc(N(C)C(=O)CN2CCN(C)CC2)cc1)c1ccccc1 [Nintedanib] (tested concentration range 1-10000 nM) | 10.5 | 5.7 | 9.2 | 8.6 | 5.5 | 5.4 | 7 | 9.3 | 8.4 | 7.7 | 0
7 | O=c1[nH]c(C2CCCN2)nc2c1oc1ccc(Cl)cc12 (stereo not given) (tested concentration range 1-10000 nM) | 0 | 3.3 | 2.7 | 0 | 0 | 0 | 0 | 1.6 | 0.6 | 0 | 0
8 | C#Cc1cccc(Nc2ncnc3cc4c(cc23)OCCOCCOCCO4)c1 [Icotinib] (tested concentration range 1-10000 nM) | 0 | 0 | 0 | 0 | 0 | 0.3 | 0 | 2.3 | 0.7 | 0 | 0
9 | CNC(=O)c1ccccc1Nc1cc(Nc2ccc(N3CCOCC3)cc2OC)ncc1C(F)(F)F [VS-4718] (tested concentration range 1-10000 nM) | 12.4 | 6.8 | 4.5 | 11.9 | 13.1 | 12.9 | 7.3 | 8.1 | 7.9 | 8.9 | 7.5
10 | CC(C)n1cnc2c(NCCc3ccc(O)cc3)nc(-c3csc4ccccc34)nc21 [StemRegenin 1] (tested concentration range 1-10000 nM) | 0 | 2.1 | 5 | 1.7 | 1.7 | 1.5 | 2.6 | 3.5 | 2.5 | 0.6 | 0
11 | CC(C)N(C[C@H]1O[C@@H](n2cnc3c(N)ncnc32)[C@H](O)[C@@H]1O)[C@H]1C[C@@H](CCc2nc3cc(C(C)(C)C)ccc3[nH]2)C1 [Pinometostat] (tested concentration range 0.1-1000 nM) | 0 | 0 | 0 | 0 | 0 | 0 | 0 | 1.5 | 0 | 0 | 0
12 | Nc1cc(COc2c(Cl)cc(C[C@H](N)C(=O)O)cc2Cl)c2oc(-c3ccccc3)nc2c1 [JPH203] (tested concentration range 0.5-5000 nM) | 0 | 0 | 0 | 2 | 1 | 0.1 | 0 | 0 | 0 | 0.1 | 0
13 | CC/C(=C(\c1ccc(O)cc1)c1ccc(OCCN(C)C)cc1)c1ccccc1 [4-hydroxytamoxifen] (tested concentration range 1-10000 nM) | 1.6 | 7.2 | 4.7 | 5.3 | 3.8 | 3.3 | 6.2 | 1.6 | 6.4 | 1.8 | 3.2
14 | CCC(C)n1ncn(-c2ccc(N3CCN(c4ccc(OCC5COC(Cn6cncn6)(c6ccc(Cl)cc6Cl)O5)cc4)CC3)cc2)c1=O (stereo not given) [Itraconazole] (tested concentration range 0.5-5000 nM) | 1.2 | 4.2 | 5.3 | 1.2 | 0 | 0 | 0.2 | 2.7 | 2.7 | 1.6 | 1
15 | CCOC(=O)C1=CCCC[C@H]1S(=O)(=O)Nc1ccc(F)cc1Cl [Resatorvid] (tested concentration range 1-10000 nM) | 0.3 | 0 | 0.4 | 0 | 0 | 0 | 0 | 5.7 | 0 | 3.6 | 0
16 | C=CC(=O)N1CCC(Oc2cc3c(Nc4ccc(Cl)c(Cl)c4F)ncnc3cc2OC)CC1 [Poziotinib] (tested concentration range 0.1-1000 nM) | 0 | 1 | 3.9 | 0 | 0 | 0 | 0 | 0.3 | 0.5 | 0 | 0
17 | CCCN(CCC)C(=O)C1=Cc2ccc(-c3ccc(C(=O)N4CCCC4)cc3)cc2N=C(N)C1 [Motolimod] (tested concentration range 1-10000 nM) | 0 | 0.3 | 3.2 | 1 | 0 | 0.4 | 0 | 1.7 | 1.1 | 1.5 | 0
18 | CC/C(=C(\c1ccccc1)c1ccc(OCCN(C)C)cc1)c1ccccc1 [Tamoxifen] (tested concentration range 1-10000 nM) | 1.9 | 5 | 4.1 | 1.3 | 2 | 0.1 | 1.1 | 2.5 | 3.7 | 2.6 | 0
19 | CC[C@]12C=CCN3CC[C@@]4(c5cc([C@@]6(C(=O)OC)C[C@@H]7C[C@@H](C(C)(F)F)CN(Cc8c6[nH]c6ccccc86)C7)c(OC)cc5N(C)[C@H]4[C@@](O)(C(=O)OC)[C@@H]1OC(C)=O)[C@@H]32 [Vinflunine] (tested concentration range 0.1-1000 nM) | 4.4 | 5.5 | 4.3 | 0.9 | 1.1 | 0.9 | 0.1 | 2 | 4.8 | 2.4 | 3.8
20 | CCn1c(=O)c(-c2ccc(Cl)cc2Cl)cc2cnc(Nc3ccc(N4CCNCC4)c(F)c3)nc21 [FRAX486] (tested concentration range 0.5-5000 nM) | 8.9 | 8.6 | 6.3 | 14.7 | 11.4 | 12.2 | 9.7 | 9.1 | 1.1 | 9 | 12.4
21 | CC[C@H](CC#N)OC(=O)N[C@@H](C)c1cccc(NC(=O)Nc2ccc(-c3cnco3)c(OC)c2)c1 [AVN944] (tested concentration range 1-10000 nM) | 12.1 | 19 | 18.1 | 16.1 | 11.4 | 8.5 | 11.4 | 8.5 | 18.7 | 11.4 | 14.9
22 | O=C(O)c1ccc(O)c2ncccc12 [IOX-1] (tested concentration range 10-100000 nM) | 0.4 | 0.8 | 6.9 | 1.7 | 0.8 | 0.1 | 2.6 | 0.3 | 0.9 | 0.8 | 3.9
23 | CC(C)(C#N)c1cc(Cn2cncn2)cc(C(C)(C)C#N)c1 [Anastrozole] (tested concentration range 1-10000 nM) | 0 | 0 | 0 | 0 | 0 | 0 | 0 | 0 | 0 | 0 | 0
24 | Cc1noc2c1-c1ccccc1C(c1ccc(Cl)cc1)=N[C@H]2CC(N)=O [CPI-0610] (tested concentration range 1-10000 nM) | 1.8 | 7.9 | 13 | 6.5 | 4.1 | 7 | 1.4 | 8.4 | 9.2 | 4.5 | 4.1
25 | CCNC(=O)CCC/C=C\C[C@@H]1[C@@H](/C=C/[C@@H](O)CCc2ccccc2)[C@H](O)C[C@@H]1O [Bimatoprost] (tested concentration range 0.6-5500 nM) | 0 | 0 | 0 | 0 | 0 | 0 | 0 | 0.1 | 0 | 0 | 0
